Here are results for one compound from paper PMC11855230, “Oligoethylene Phosphoramidate‐Based Kinase Inhibitor Prodrugs – Solubility, Enzyme Inhibition, and Hydrolysis” (Chemistry (Weinheim an Der Bergstrasse, Germany), 2025).

The nature of data set [1]: Solubility limit in water (kinetic solubility) by UV/Vis optical density at 600 nm. It counts as physicochemical. As to conditions: kinetic from dmso stock, absorption at 600 nm, read-out: c sol (water), solubility limit in water. From the text: With all purified compounds in hand, we start to analyze the different properties of the conjugates and discuss the influence of the OEG‐chain lengths. We determine the solubility in water with UV/Vis spectroscopy by measuring the optical density at 600 nm. The absorption (A) is plotted against varying concentration (c) of the drug conjugates (see Figure S1). In the range, in which the drug and their conjugates are still soluble, A can be fitted linearly. When the solubility limit is reached, the drug crashes out of solution leading to scattering and reduced transmission manifesting a threshold, upon which the increase in absorption is fitted with a second line of higher slope. The intersection between the two linear fits gives the critical concentration for the kinetic solubility c sol. Detailed solubility plots can be found in the supporting information (see Figure S1). In our previous study with n=4, the solubility of all three kinase inhibitor prodrugs in water is improved over the native drug. However, the extent of improvement varies between the different kinase inhibitor prodrugs. For a better overview, we have included the performance of our previous study (see Figure 2).[21] […] We observe an improvement of solubility upon conjugation with all of our different OEG‐phosphates.
UV‐Vis Spectroscopy: Changes in solubility are measured with a Lambda 365 spectrometer by PerkinElmer supplied with UV WinLab software. Samples are prepared in water and placed in a 1 cm quartz cuvette.

The test system of data set [2] is HeLa cells. The experiment in a line: Cellular drug release in HeLa cells, LC–MS of cell lysate. In kind it is cell-based. The settings on record: 20 μM, 48 h. The method, then:
HeLa cells are treated with Rib‐OEG4 for 48 h followed by cell lysis. The cell lysate is analyzed with liquid chromatography‐mass spectrometry (LC–MS). […] This confirms that release of the drug is possible in cells and that the low pH in some of the cell compartments, such as the lysosomes, yield release of the effective drug molecule.
Cellular Drug‐Release with LC–MS: Drug release studies are performed according to previous publication with 20 μM of Rib‐OEG4 .[21]

For data set [3], the system named is HeLa cells. The experiment in a line: Cell uptake in HeLa cells by confocal laser scanning microscopy (CLSM). In kind it is cell-based. The settings on record: 25 μM, 23 h, excitation 405 nm. Here is the method:
Altogether an OEG chain length of n=4 seems to be favorable for producing prodrugs with improved solubility from kinase inhibitors. […] Here we therefore concentrate on Rib‐OEG4 . […] The drug and its conjugate are exited at 405 nm, leading to weak fluorescence of the drugs.
Uptake is followed by Confocal for 23 h using Leica TCS SP8 Lightning confocal microscope with an OnkoLab incubator chamber with a constant temperature of 37 °C and a 5 % CO2 atmosphere at 95 % humidity (gas flow: 0.1 L/min). Drug and drug‐OEG conjugate is excited at 405 nm.

Data set [4] can be described thus: Dynamic light scattering (DLS) of drug‐conjugates in water. It counts as physicochemical. Here is the method:
To study, whether self‐assembly into micelles might have an effect on the solubility limit of the prodrugs, we perform dynamic light scattering (DLS) of the drug‐conjugates in water. […] Micelles below 6 nm (Cer‐OEG8 , Cri‐OEG3 , Cri‐OEG8 , Pal‐OEG3 , Rib‐OEG2 , and Rib‐OEG3 ) are potentially affected by renal clearance.
Dynamic Light Scattering (DLS): Possible self‐assemblies are investigated with DLS Nano‐Zetasizer (Malvern Instruments) at 25 °C with a scattering angle of 173° at λ=633 nm.

In data set [5] the target is T1, cyclin‐dependent kinase 4 (CDK4) (Homo sapiens, UniProt P11802).
T1 construct: purchased biomol
T1 sequence (P11802 whole entry): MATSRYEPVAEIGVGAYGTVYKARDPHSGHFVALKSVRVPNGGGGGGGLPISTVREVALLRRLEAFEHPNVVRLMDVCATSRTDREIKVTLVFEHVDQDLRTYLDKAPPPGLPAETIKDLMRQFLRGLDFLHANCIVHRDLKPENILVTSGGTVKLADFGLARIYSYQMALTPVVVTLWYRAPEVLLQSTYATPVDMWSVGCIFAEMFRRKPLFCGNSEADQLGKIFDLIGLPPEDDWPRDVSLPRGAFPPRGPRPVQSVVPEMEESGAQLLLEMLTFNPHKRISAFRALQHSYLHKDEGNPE
T1 sequence (P30281 whole entry partner): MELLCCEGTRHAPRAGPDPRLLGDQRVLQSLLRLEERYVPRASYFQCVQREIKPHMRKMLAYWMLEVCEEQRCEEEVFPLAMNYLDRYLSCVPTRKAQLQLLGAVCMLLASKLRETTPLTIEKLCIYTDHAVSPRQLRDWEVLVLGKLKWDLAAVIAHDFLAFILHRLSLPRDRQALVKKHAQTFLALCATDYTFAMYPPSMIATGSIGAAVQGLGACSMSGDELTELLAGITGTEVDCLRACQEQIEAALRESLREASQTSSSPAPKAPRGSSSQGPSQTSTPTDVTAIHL
Briefly: CDK4 cell free enzyme (kinase) inhibition assay, luminescence. In kind it is biochemical. The settings on record: 1 % DMSO, duplicates. Here is the method:
Apart from solubility and self‐assembly, we investigate the inhibitory potential against the respectively targeted receptors.
Enzyme Binding Assays (CDK4):[21] […] The instructions are followed with some specifications: DTT (10 μL of 1 M DTT to 1 mL buffer) is added to the buffer solution and the assay is performed with 1 % DMSO in the final reaction volume. Serial dilutions of inhibitor (5 μL) are mixed with 20 μL enzyme (10 ng/μL), 5 μL of 10x CDK4 substrate peptide and 1 μL ATP solution (500 μM) in a 96‐well plate. The blank contains no enzyme and no inhibitor. The positive control contains enzyme but no inhibitor. The receptor inhibitory rate is calculated from the luminescence as IC50. […] Luminescence is recorded on Promega GloMax Navigator Microplate Luminometer. Samples are prepared in duplicates.

[6] abbreviates: DLS in water, at the concentration given per compound (Figures S2–S5).

Converted amounts (≈) assume the structure as drawn.

For the compound `COCCOCCOCCOCCOP(=O)(OCCOCCOCCOCCOC)N1CCN(c2ccc(Nc3ncc4cc(C(=O)N(C)C)n(C5CCCC5)c4n3)nc2)CC1` [Rib‐OEG4], the solubility in data set [1] worked out at 9.33 mM (≈ 8350 µg/mL). Besides, the “release of native drug from prodrug in HeLa cells” value in the data set on HeLa cells [2] is reported as “most of the native drug has been released”. Besides, the “uptake in HeLa cells” value in the data set on HeLa cells [3] was “taken up by the cells”. In data set [4] (DLS in water at critical solution concentration c sol, 25 °C), this compound gave a hydrodynamic diameter d of 92 nm. In data set [4] (setting [6]), this compound came in with a PDI of 0.35 and a hydrodynamic diameter of 92 nm. The compound further yielded an IC50 in data set [5] of 12 nM.
